# From publication PMC9220127, “Reactive Human Plasma Glutathione Peroxidase Mutant with Diselenide Bond Succeeds in Tetramer Formation” (Antioxidants, 2022)
# Target: T1, Sec−hGPx3 (human plasma glutathione peroxidase, GPx3) (Homo sapiens, UniProt P22352)
# T1 construct: mature form without signal peptide (nucleotides 1-72 removed), Sec49 inserted at UAG with tRNA-UTuT6, E. coli C321.ΔA.exp, Ni-NTA purified, unglycosylated, about 25 kDa; starts QEKSKMDCHGGIS
# T1 sequence (P22352 25-226): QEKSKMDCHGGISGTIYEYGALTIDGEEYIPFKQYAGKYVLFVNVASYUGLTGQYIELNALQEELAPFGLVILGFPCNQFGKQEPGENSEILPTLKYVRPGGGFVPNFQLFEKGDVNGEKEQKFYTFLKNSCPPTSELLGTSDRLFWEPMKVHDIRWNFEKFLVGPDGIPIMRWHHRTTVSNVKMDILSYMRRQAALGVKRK
# Assay: glutathione reductase-coupled NADPH oxidation at […] nm
# Type: biochemical
# Conditions: 60 μM t-BuOOH, 1 mM GSH, 0.25 mM NADPH, 1 mM EDTA, pH 7.4, 37 °C; non-tetrameric recombinant enzyme
structure (smiles),measurement,value
CC(C)(C)OO [t−BuOOH],glutathione reductase-coupled NADPH oxidation at 340 nm,"GR−coupled assay with H2O2 or t−BuOOH as substrates (Figure 1B), which revealed significant GPx activity"
